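Five concentrations, 48 hours, 96-well plates. The concentration for 50% growth inhibition is given as GI50.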 The source made the active and inactive calls. Cut-off read from the data, not from the text of the source: active = GI50 up to about 1.1 µM and inactive = higher.
What was measured:
Experiment in all cases: growth of human tumour cells (NCI), 48 h
SNB-19 = test system: SNB-19
K562 = test system: K562
HOP-62 = test system: HOP-62
SF-539 = test system: SF-539
SW-620 = test system: SW-620
SNB-75 = test system: SNB-75
HL-60 = test system: HL-60
CCRF-CEM = test system: CCRF-CEM
HCT-15 = test system: HCT-15
RXF 393 = test system: RXF 393
OVCAR-3 = test system: OVCAR-3
HT-29 = test system: HT-29
COLO 205 = test system: COLO 205
NCI-H522 = test system: NCI-H522
LOX IMVI = test system: LOX IMVI
786-0 = test system: 786-0
U-251 = test system: U-251
RPMI-8226 = test system: RPMI-8226

CCC(CC)NC1=C(NC(C)=O)C(=O)c2ccccc2C1=O
GI50 (SNB-19): > 50 µM (inactive) | GI50 (K562): > 50 µM (inactive) | GI50 (HOP-62): > 50 µM (inactive) | GI50 (SF-539): > 50 µM (inactive) | GI50 (SW-620): > 50 µM (inactive) | GI50 (SNB-75): > 50 µM (inactive) | GI50 (HL-60): > 50 µM (inactive) | GI50 (CCRF-CEM): > 50 µM (inactive) | GI50 (HCT-15): > 50 µM | GI50 (RXF 393): > 50 µM (inactive) | GI50 (OVCAR-3): > 50 µM (inactive) | GI50 (HT-29): > 50 µM (inactive) | GI50 (COLO 205): > 50 µM (inactive) | GI50 (NCI-H522): > 50 µM (inactive) | GI50 (LOX IMVI): > 50 µM (inactive) | GI50 (786-0): > 50 µM (inactive) | GI50 (U-251): > 50 µM (inactive)

Cc1ccc(S(=O)(=O)NC2(C=O)CCCC3CCCCC32)cc1 (centres undefined)
GI50 (SNB-19): > 100 µM (inactive) | GI50 (K562): > 100 µM (inactive) | GI50 (HOP-62): > 100 µM (inactive) | GI50 (SF-539): > 100 µM (inactive) | GI50 (SW-620): > 100 µM (inactive) | GI50 (SNB-75): > 100 µM (inactive) | GI50 (HL-60): > 100 µM (inactive) | GI50 (CCRF-CEM): > 100 µM (inactive) | GI50 (RPMI-8226): > 100 µM (inactive) | GI50 (HCT-15): > 100 µM | GI50 (RXF 393): > 100 µM (inactive) | GI50 (OVCAR-3): > 100 µM (inactive) | GI50 (COLO 205): > 100 µM (inactive) | GI50 (NCI-H522): > 100 µM (inactive) | GI50 (786-0): > 100 µM (inactive) | GI50 (U-251): > 100 µM (inactive)

CC(=O)Nc1ccc(C2C(C(=O)Nc3ccccc3C)=C(C)NC(C)=C2C(=O)Nc2ccccc2C)cc1
GI50 (SNB-19): > 100 µM (inactive) | GI50 (K562): 57.5 µM (inactive) | GI50 (HOP-62): > 100 µM (inactive) | GI50 (SF-539): > 100 µM (inactive) | GI50 (SW-620): > 100 µM (inactive) | GI50 (SNB-75): > 61.2 µM (inactive) | GI50 (HL-60): 39.5 µM (inactive) | GI50 (CCRF-CEM): > 100 µM (inactive) | GI50 (RPMI-8226): > 100 µM (inactive) | GI50 (HCT-15): > 100 µM | GI50 (RXF 393): > 100 µM (inactive) | GI50 (OVCAR-3): > 100 µM (inactive) | GI50 (HT-29): > 100 µM (inactive) | GI50 (COLO 205): > 100 µM (inactive) | GI50 (NCI-H522): > 100 µM (inactive) | GI50 (LOX IMVI): > 100 µM (inactive) | GI50 (786-0): > 100 µM (inactive) | GI50 (U-251): > 100 µM (inactive)

CC1=C(C(=O)Nc2cccc(C(F)(F)F)c2)C(c2ccc(O)cc2)C(C(=O)Nc2cccc(C(F)(F)F)c2)=C(C)N1
GI50 (SNB-19): 32.2 µM (inactive) | GI50 (K562): 15 µM (inactive) | GI50 (HOP-62): 19.5 µM (inactive) | GI50 (SF-539): 26.5 µM (inactive) | GI50 (SW-620): 19.4 µM (inactive) | GI50 (SNB-75): 17.2 µM (inactive) | GI50 (HL-60): 15.1 µM (inactive) | GI50 (CCRF-CEM): 13.6 µM (inactive) | GI50 (RPMI-8226): 7.35 µM (inactive) | GI50 (RXF 393): 10.1 µM (inactive) | GI50 (OVCAR-3): 15.7 µM (inactive) | GI50 (HT-29): 16 µM (inactive) | GI50 (COLO 205): 13.9 µM (inactive) | GI50 (NCI-H522): 15.5 µM (inactive) | GI50 (LOX IMVI): 15.6 µM (inactive) | GI50 (786-0): 16.7 µM (inactive) | GI50 (U-251): 17.1 µM (inactive)

CCN(CC)CCNc1ccc(C)c2sc3ccc(O)cc3c(=O)c12
GI50 (SNB-19): 1.82 µM (inactive) | GI50 (K562): 0.832 µM (active) | GI50 (HOP-62): 0.274 µM (active) | GI50 (SF-539): 1.15 µM (inactive) | GI50 (SW-620): 0.582 µM (active) | GI50 (SNB-75): 1.05 µM (active) | GI50 (HL-60): 0.106 µM (active) | GI50 (CCRF-CEM): 0.0991 µM (active) | GI50 (RPMI-8226): 1.05 µM (active) | GI50 (HCT-15): 0.923 µM | GI50 (RXF 393): 2.51 µM (inactive) | GI50 (OVCAR-3): 2.15 µM (inactive) | GI50 (HT-29): 1.58 µM (inactive) | GI50 (COLO 205): 1.62 µM (inactive) | GI50 (NCI-H522): 1.28 µM (inactive) | GI50 (LOX IMVI): 0.711 µM (active) | GI50 (786-0): 0.655 µM (active) | GI50 (U-251): 1.09 µM (active)

CC(=O)OC12C=CC(=O)N1c1ccccc1C(=O)O2 (centres undefined)
GI50 (SNB-19): > 100 µM (inactive) | GI50 (K562): > 100 µM (inactive) | GI50 (HOP-62): > 100 µM (inactive) | GI50 (SF-539): > 100 µM (inactive) | GI50 (SW-620): > 100 µM (inactive) | GI50 (SNB-75): > 100 µM (inactive) | GI50 (HL-60): > 100 µM (inactive) | GI50 (CCRF-CEM): > 100 µM (inactive) | GI50 (RPMI-8226): > 100 µM (inactive) | GI50 (HCT-15): > 100 µM | GI50 (RXF 393): > 100 µM (inactive) | GI50 (OVCAR-3): > 100 µM (inactive) | GI50 (HT-29): > 100 µM (inactive) | GI50 (COLO 205): > 100 µM (inactive) | GI50 (NCI-H522): > 100 µM (inactive) | GI50 (LOX IMVI): > 100 µM (inactive) | GI50 (786-0): > 100 µM (inactive) | GI50 (U-251): > 100 µM (inactive)
